# Measured values taken from ChEMBL document CHEMBL1275485, “The antimalarial trioxaquine DU1301 alkylates heme in malaria-infected mice” (Antimicrob Agents Chemother, 2008).
# Active and inactive are the calls of the source. The calls are words filed in the database; no cut-off is given here.
# Experiments:
# Spleen = test: Induction of heme alkylation in Plasmodium vinckei petteri-infected Swiss albino mice (Mus musculus) spleen assessed as covalent heme-drug adduct formation at 100 mg/kg, perorally administered as single dose measured by liquid chromatography-mass spectrometry method; format: functional, organism-based; parameters: dose 100 mg/kg
# Kidney = test: Induction of heme alkylation in Plasmodium vinckei petteri-infected Swiss albino mice (Mus musculus) kidney assessed as heme-drug adduct at 100 mg/kg, perorally administered as single dose measured by liquid chromatography-mass spectrometry method; format: functional, organism-based; parameters: dose 100 mg/kg
structure (smiles),measurement,setting,value
CC(C)C1=C[C@H]2OC3(CCC(NCCNc4ccnc5cc(Cl)ccc45)CC3)OO[C@@]2(C)CC1 (some centres not stated),Activity,Spleen,Active
same,Activity,Kidney,inactive
